Numbers after ± are expanded uncertainties.
Details: Crystal; DTA

- Normal melting temperature: 188 ± 1 °C
Compound: O=C(O)CCC(=O)O [butanedioic acid]

— the NIST ThermoML archive (doi:10.1021/je900021g)
